Laboratory results taken from article PMC3362543 (2012).

Tests used:
[1] = system: poly(U)•poly(A)*poly(U) (RNA, polymer) U/A/U; experiment: ITC, single set of sites; details: 35 mM Na+ (25 mM NaCl, 10 mM sodium cacodylate), 0.1 mM Na2EDTA, pH 7.0, 25 °C, triplex 25 µM, per base
[2] = system: poly(U)•poly(A)*poly(U) (RNA, polymer) U/A/U; experiment: absorbance titration, Scatchard, McGhee-von Hippel non-cooperative; details: 35 mM Na+ (25 mM NaCl, 10 mM sodium cacodylate), 0.1 mM Na2EDTA, pH 7.0, 25 °C, intrinsic constant per isolated site, per base
[3] = system: poly(U)•poly(A)*poly(U) (RNA, polymer) U/A/U; experiment: fluorescence titration, Scatchard, McGhee-von Hippel non-cooperative; details: 35 mM Na+ (25 mM NaCl, 10 mM sodium cacodylate), 0.1 mM Na2EDTA, pH 7.0, 25 °C, intrinsic constant per isolated site, per base
[4] = system: poly(U)•poly(A)*poly(U) (RNA, polymer) U/A/U; experiment: UV melting at 260 nm; details: 35 mM Na+ (25 mM NaCl, 10 mM sodium cacodylate), 0.1 mM Na2EDTA, pH 7.0, D/P 0.6, triplex 30 µM (compound 18 µM), third-strand transition, per base

| Ka [1] | Ki [2] | Ki [3] | ΔTm' (3→2) [4] [°C] | SMILES |
| --- | --- | --- | --- | --- |
| 23±0.10 × 10^5 M^-1 | 39.87±0.41 × 10^5 M^-1 | 47.0±0.56 × 10^5 M^-1 | 20.5 | COc1ccc2cc3[n+](cc2c1OCCCCCCN)CCc1cc2c(cc1-3)OCO2 |
| 1.5±0.04 × 10^5 M^-1 | 2.88±0.02 × 10^5 M^-1 | 3.9±0.05 × 10^5 M^-1 | 17.5 | COc1ccc2cc3[n+](cc2c1OC)CCc1cc2c(cc1-3)OCO2 |
| 9.73±0.09 × 10^5 M^-1 | 8.65±0.34 × 10^5 M^-1 | 9.5±0.10 × 10^5 M^-1 | 18.1 | COc1ccc2cc3[n+](cc2c1OCCCN)CCc1cc2c(cc1-3)OCO2 |
